Data published in paper PMC5386672, “Structure-guided design of purine-based probes for selective Nek2 inhibition” (Oncotarget, 2016).
Entries after “also recorded” stand apart in the source; their conditions may differ.

Experiments:
Nek2 [1] = details: read-out: Nek2 inhibitory activity IC50; cited from earlier work
Nek2 [2] = molecular target: T1, Nek2 (Homo sapiens, UniProt P51955); test: Nek2 Caliper kinase inhibition assay; assay type: biochemical; details: Caliper assay, 30 μM ATP
T1 construct: purchased Invitrogen
T1 sequence (P51955 1-445): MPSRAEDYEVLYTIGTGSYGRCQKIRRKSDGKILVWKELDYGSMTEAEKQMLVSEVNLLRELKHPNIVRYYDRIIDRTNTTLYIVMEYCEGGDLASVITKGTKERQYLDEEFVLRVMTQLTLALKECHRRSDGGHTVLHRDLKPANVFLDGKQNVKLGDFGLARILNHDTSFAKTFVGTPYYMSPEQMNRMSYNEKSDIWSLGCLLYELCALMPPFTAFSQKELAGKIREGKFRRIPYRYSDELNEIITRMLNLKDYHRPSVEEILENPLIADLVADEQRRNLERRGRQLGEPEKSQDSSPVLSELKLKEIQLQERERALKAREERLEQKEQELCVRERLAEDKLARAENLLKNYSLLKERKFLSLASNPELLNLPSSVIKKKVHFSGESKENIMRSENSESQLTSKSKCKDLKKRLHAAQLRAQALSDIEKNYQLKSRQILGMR

Plk1 = Plk1 (Homo sapiens, UniProt P53350); test: Separate counter-screen against Plk1; assay type: biochemical
Plk1, sequence (P53350 whole entry): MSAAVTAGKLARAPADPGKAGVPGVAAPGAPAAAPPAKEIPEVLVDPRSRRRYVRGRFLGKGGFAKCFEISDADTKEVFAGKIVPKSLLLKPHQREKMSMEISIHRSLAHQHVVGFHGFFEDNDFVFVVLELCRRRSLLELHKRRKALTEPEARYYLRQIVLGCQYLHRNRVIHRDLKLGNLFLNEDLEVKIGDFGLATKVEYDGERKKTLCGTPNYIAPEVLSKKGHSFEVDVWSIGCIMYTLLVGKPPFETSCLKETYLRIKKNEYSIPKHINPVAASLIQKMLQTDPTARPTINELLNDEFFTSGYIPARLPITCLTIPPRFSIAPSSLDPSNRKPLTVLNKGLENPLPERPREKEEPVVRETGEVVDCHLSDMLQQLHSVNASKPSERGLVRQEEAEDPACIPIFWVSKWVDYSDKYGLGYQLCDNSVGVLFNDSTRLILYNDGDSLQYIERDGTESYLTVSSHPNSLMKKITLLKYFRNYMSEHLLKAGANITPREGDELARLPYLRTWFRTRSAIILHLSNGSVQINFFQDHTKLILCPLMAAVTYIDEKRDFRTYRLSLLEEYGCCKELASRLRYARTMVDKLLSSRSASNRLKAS
Method: To assess the broader kinase selectivity of this series of 6-(dialkylamino)vinyl-purines, the diethylamino derivative 71 was chosen for wider screening against 24 kinases at 2 μM inhibitor concentration (Figure 5 – method as in reference 12).

CDK2 = CDK2 (Homo sapiens, UniProt P24941); test: CDK2 kinase inhibition assay; assay type: biochemical; details: 12.5 μM ATP
Nek2 [3] = molecular target: T1, Nek2; test: Effect of pre-incubation of Nek2 with inhibitor on IC50 (time-dependence); assay type: biochemical
Description: www.impactjournals.com/oncotarget/ Oncotarget, Supplementary Materials 2016
Time after inhibitor addition
(1 picture or pasted object on this page, not shown here)

Nek2 [4] = molecular target: T1, Nek2; test: Nek2 inhibition reversibility assay (rapid dilution); assay type: biochemical; details: 30 min pre-incubation at ten-fold IC50, rapid 100-fold dilution
Method: The reversible nature of Nek2 inhibition by enamine 70 was measured using a kinase inhibition-reversibility assay. […] This solution in reaction buffer was pre-incubated with inhibitor 70 at a concentration ten-fold its IC50, calculated to afford approximately 91% inhibition of Nek2. […] Following rapid 1:100 dilution, a reaction progress curve was generated by monitoring for levels of the phosphorylated substrate as described in reference 16 using the Caliper EZ Reader II instrument at different times throughout the duration of the reaction.

[5] = HPLC analysis of enamine stability in human plasma; assay type: in vitro ADME; details: over a period of 24 hours
[6] = HPLC analysis of enamine stability in assay media, DMSO and pH buffers; assay type: physicochemical
Method: To determine whether the enamines were hydrolysed under the assay conditions, the stability of representative enamine derivative 72 was assessed in a range of assay media and pH buffers. Stock solutions of 72 in each of the various media were prepared and aliquots were extracted from each solution at various time points and subjected to HPLC analysis to measure the remaining intact enamine (Figure 9).
Solutions of 10 μM 72 were prepared in100% MEM media, 100% RPMI media, 10% (v/v) FCS in MEM, 10% BSA in water (v/v), 10 % FCS (v/v) in water, or 10 % (v/v) boiled FCS in water, DMSO and phosphate buffered water at pH 2, pH 7 and pH 10 by adding 10 μL of the 1 mM working stock of 72 in MeCN to 990 μL of each medium. A 50 μL aliquot was removed directly and immediately extracted as described below. At 5, 10, 15, 30, 60, 90, 120, 180, 240, 360 and 1440 minutes after addition of the drug further aliquots of 50 μL were taken and extracted as below. At each time point the 50 μL of the test solution was added to 50 μL of acetonitrile (MeCN). Samples were mixed for 10 seconds on a vortex mixer and centrifuged at 15700 rcf for 5 minutes in a microcentrifuge. The supernatant solution from each sample was placed into an HPLC vial for analysis. Samples were analysed by reverse phase HPLC with PDA detection.

[7] = 10 min after inhibitor addition
[8] = 15 min after inhibitor addition
[9] = 30 min after inhibitor addition
[10] = 60 min after inhibitor addition

C[C@@]12c3ccc4c(c3C(=O)c3occ(c31)C(=O)C[C@H]2O)CCC4=O [Compound 4]
IC50 (Nek2 [1]): 1.9 µM

CN(C)/C=C/c1nc(Nc2ccccc2)nc2[nH]cnc12 [Compound 70, (E)-6-(2-(Dimethylamino)vinyl)-N-phenyl-9H-purin-2-amine]
IC50 (Nek2 [2]): 0.77 µM | inhibition at 10 µM (Plk1): 41% | IC50 (CDK2): 3 µM | Hill slope (Nek2 [3]; 2 min after inhibitor addition): 0.73 | IC50 (Nek2 [3]; 2 min after inhibitor addition): 1.37 µM | Hill slope (Nek2 [3]; 5 min after inhibitor addition): 0.59 | IC50 (Nek2 [3]; 5 min after inhibitor addition): 0.84 µM | Hill slope (Nek2 [3]; [7]): 0.79 | IC50 (Nek2 [3]; [7]): 1.58 µM | Hill slope (Nek2 [3]; [8]): 0.71 | IC50 (Nek2 [3]; [8]): 1.33 µM | Hill slope (Nek2 [3]; [9]): 0.72 | IC50 (Nek2 [3]; [9]): 1.06 µM | Hill slope (Nek2 [3]; [10]): 0.85 | IC50 (Nek2 [3]; [10]): 1.47 µM | time-dependence of Nek2 inhibition (Nek2 [3]; pre-incubation 2-60 min): not to exhibit time-dependent Nek2 inhibition kinetics | reversibility of Nek2 inhibition (Nek2 [4]): binds reversibly; also recorded: not an irreversible inhibitor | melting point: 129 to 131 °C

C(=C\N1CCCCCC1)/c1nc(Nc2ccccc2)nc2[nH]cnc12 [Compound 72, (E)-6-(2-(Azepan-1-yl)vinyl)-N-phenyl-9H-purin-2-amine]
stability in human plasma [5]: relatively stable | stability in DMSO ([6]; DMSO solutions, for over 24 h): stable | stability in standard assay media ([6]; MEM and RPMI media, 10 μM, HPLC): degraded at a similar rate | stability at acidic pH ([6]; pH 2.2): relatively stable | stability at neutral pH ([6]; pH 7): rapidly degraded | stability at basic pH ([6]; pH 10.4): rapidly degraded
